These are literature values, as cited in US20080206336A1, “Novel Composition Comprising Rosiglitazone and Another Antidiabetic Agent” (SB PHARMCO PURERTO RICO INC. The Prentice Hall Corp. System …, priority 2003, published 2008).

For this data set the following is noted: acidic conditions of the stomach (around pH 2) versus near neutral conditions of the lower intestine (around pH 7).

`CN(CCOc1ccc(CC2SC(=O)NC2=O)cc1)c1ccccn1` (stereo not shown) [Compound A, 5-[4-[2-(N-methyl-N-(2 pyridyl)amino)ethoxy]benzyl]thiazolidine-2,4-dione]: the pH dependent solubility result is “marked pH dependent solubility”.
